pIC50: −log10 of the molar value.
Target: T1, GLUT1 (Homo sapiens, UniProt P11166)
T1 sequence (P11166 1-492): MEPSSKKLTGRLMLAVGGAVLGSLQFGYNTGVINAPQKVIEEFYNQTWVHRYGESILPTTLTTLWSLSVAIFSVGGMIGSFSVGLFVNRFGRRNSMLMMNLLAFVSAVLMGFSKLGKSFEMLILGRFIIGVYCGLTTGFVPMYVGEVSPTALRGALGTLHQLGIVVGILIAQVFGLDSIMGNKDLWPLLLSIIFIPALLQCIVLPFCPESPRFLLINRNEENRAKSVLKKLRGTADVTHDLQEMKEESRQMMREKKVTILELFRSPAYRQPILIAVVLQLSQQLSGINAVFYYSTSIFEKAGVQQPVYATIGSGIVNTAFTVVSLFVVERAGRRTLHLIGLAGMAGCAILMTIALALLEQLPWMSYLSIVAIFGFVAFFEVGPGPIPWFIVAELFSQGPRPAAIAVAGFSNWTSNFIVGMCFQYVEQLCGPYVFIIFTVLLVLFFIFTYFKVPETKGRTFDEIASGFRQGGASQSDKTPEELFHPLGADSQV
Test: Indirect measurement of GLUT1 activity by quantification of intracellular ATP levels (glucose induced ATP increase)
Assay type: cell-based
Parameters: endogenous in cells; host or cells: DLD1 or CHO-K1
Details: read-out: IC50 regarding glucose induced ATP increase (GLUT1 inhibition)
In short: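 Intracellular ATP was measured by CellTiter-Glo luminescence as an indirect readout of transport: glucose-driven for GLUT1, fructose-driven for GLUT2. DLD1 or CHO-K1 cells were used alongside an oxidative phosphorylation inhibitor. Beforehand, cells were held overnight in glucose-free 1% FCS medium to deplete ATP.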

CCc1nn(Cc2ccc(C#N)cc2)c(CC)c1NC(=O)c1cc(C(N)=O)nc2ccccc12 [Example 310, N^4-[1-(4-cyanobenzyl)-3,5-diethyl-1H-pyrazol-4-yl]quinoline-2,4-dicarboxamide]
pIC50: 7.33

CCc1nn(Cc2ccc(C#N)cc2)c(CC)c1NC(=O)c1cc(C(N)=O)nc2cc(F)c(Cl)cc12 [Example 311, 6-chloro-N^4-[1-(4-cyanobenzyl)-3,5-diethyl-1H-pyrazol-4-yl]-7-fluoroquinoline-2,4-dicarboxamide]
pIC50: 8.22

CCc1nn(Cc2ccc(C#N)cc2)c(CC)c1NC(=O)c1cc(C(N)=O)nc2cc(F)ccc12 [Example 312, N^4-[1-(4-cyanobenzyl)-3,5-diethyl-1H-pyrazol-4-yl]-7-fluoroquinoline-2,4-dicarboxamide]
pIC50: 7.45

CCc1nn(Cc2ccc(C#N)cc2)c(CC)c1NC(=O)c1cc(C(N)=O)nc2cc(Cl)ccc12 [Example 313, 7-chloro-N^4-[1-(4-cyanobenzyl)-3,5-diethyl-1H-pyrazol-4-yl]quinoline-2,4-dicarboxamide]
pIC50: 6.73

CCc1c(NC(=O)c2cc(C(N)=O)nc3cc(F)c(Cl)cc23)c(C(F)(F)F)nn1Cc1ccc(C#N)cc1 [Example 314, 6-chloro-N^4-[1-(4-cyanobenzyl)-5-ethyl-3-(trifluoromethyl)-1H-pyrazol-4-yl]-7-fluoroquinoline-2,4-dicarboxamide]
pIC50: 8.80

CCc1c(NC(=O)c2cc(C(N)=O)nc3cc(F)ccc23)c(C(F)(F)F)nn1Cc1ccc(C#N)cc1 [Example 315, N^4-[1-(4-cyanobenzyl)-5-ethyl-3-(trifluoromethyl)-1H-pyrazol-4-yl]-7-fluoroquinoline-2,4-dicarboxamide]
pIC50: 7.80

CCc1c(NC(=O)c2cc(C(N)=O)nc3cccc(F)c23)c(C(F)(F)F)nn1Cc1ccc(C#N)cc1 [Example 316, N^4-[1-(4-cyanobenzyl)-5-ethyl-3-(trifluoromethyl)-1H-pyrazol-4-yl]-5-fluoroquinoline-2,4-dicarboxamide]
pIC50: 7.70

CC(C)c1c(NC(=O)c2cc(C(N)=O)nc3ccccc23)c(C(F)(F)F)nn1Cc1ccc(C#N)cc1 [Example 317, N^4-[1-(4-cyanobenzyl)-5-isopropyl-3-(trifluoromethyl)-1H-pyrazol-4-yl]quinoline-2,4-dicarboxamide]
pIC50: 5.98

CC(C)c1c(NC(=O)c2cc(C(N)=O)nc3cc(F)ccc23)c(C(F)(F)F)nn1Cc1ccc(C#N)cc1 [Example 318, N^4-[1-(4-cyanobenzyl)-5-isopropyl-3-(trifluoromethyl)-1H-pyrazol-4-yl]-7-fluoroquinoline-2,4-dicarboxamide]
pIC50: 6.45

CC(C)c1nn(Cc2ccc(C#N)cc2)c(C(F)(F)F)c1NC(=O)c1cc(C(N)=O)nc2ccccc12 [Example 319, N^4-[1-(4-cyanobenzyl)-3-isopropyl-5-(trifluoromethyl)-1H-pyrazol-4-yl]quinoline-2,4-dicarboxamide]
pIC50: 9.00

CC(C)c1nn(Cc2ccc(C#N)cc2)c(C(F)(F)F)c1NC(=O)c1cc(C(N)=O)nc2cc(F)ccc12 [Example 320, N^4-[1-(4-cyanobenzyl)-3-isopropyl-5-(trifluoromethyl)-1H-pyrazol-4-yl]-7-fluoroquinoline-2,4-dicarboxamide]
pIC50: 8.10

Cc1c(NC(=O)c2cc(C(N)=O)nc3cc(F)ccc23)c(C(C)C)nn1Cc1ccc(C#N)cc1 [Example 321, N^4-[1-(4-cyanobenzyl)-3-isopropyl-5-methyl-1H-pyrazol-4-yl]-7-fluoroquinoline-2,4-dicarboxamide]
pIC50: 8.14

Cc1c(NC(=O)c2cc(C(N)=O)nc3ccccc23)c(C(C)C)nn1Cc1ccc(C#N)cc1 [Example 322, N^4-[1-(4-cyanobenzyl)-3-isopropyl-5-methyl-1H-pyrazol-4-yl]quinoline-2,4-dicarboxamide]
pIC50: 8.72

Cc1nn(Cc2ccc(C#N)cc2)c(C(C)C)c1NC(=O)c1cc(C(N)=O)nc2ccccc12 [Example 323, N^4-[1-(4-cyanobenzyl)-5-isopropyl-3-methyl-1H-pyrazol-4-yl]quinoline-2,4-dicarboxamide]
pIC50: 7.40

Cc1c(NC(=O)c2cc(C(N)=O)nc3cc(F)c(Cl)cc23)c(C(C)C)nn1Cc1ccc(C#N)cc1 [Example 324, 6-chloro-N^4-[1-(4-cyanobenzyl)-3-isopropyl-5-methyl-1H-pyrazol-4-yl]-7-fluoroquinoline-2,4-dicarboxamide]
pIC50: 8.72

CCc1nn(Cc2ccc(C#N)cc2)c(C)c1NC(=O)c1cc(C(N)=O)nc2ccccc12 [Example 325, N^4-[1-(4-cyanobenzyl)-3-ethyl-5-methyl-1H-pyrazol-4-yl]quinoline-2,4-dicarboxamide]
pIC50: 8.41

CCc1c(NC(=O)c2cc(C(N)=O)nc3ccccc23)c(C)nn1Cc1ccc(C#N)cc1 [Example 326, N^4-[1-(4-cyanobenzyl)-5-ethyl-3-methyl-1H-pyrazol-4-yl]quinoline-2,4-dicarboxamide]
pIC50: 7.84

CCc1nn(Cc2ccc(C#N)cc2)c(C)c1NC(=O)c1cc(C(N)=O)nc2cc(F)ccc12 [Example 327, N^4-[1-(4-cyanobenzyl)-3-ethyl-5-methyl-1H-pyrazol-4-yl]-7-fluoroquinoline-2,4-dicarboxamide]
pIC50: 8.43

Cc1c(NC(=O)c2cc(C(N)=O)nc3c(Cl)cccc23)c(C(F)(F)F)nn1Cc1ccc(C#N)cc1 [Example 338, 8-chloro-N^4-[1-(4-cyanobenzyl)-5-methyl-3-(trifluoromethyl)-1H-pyrazol-4-yl]quinoline-2,4-dicarboxamide]
pIC50: 8.57

Cc1c(NC(=O)c2cc(C(=O)NCCCO)nc3cc(F)ccc23)c(C(F)(F)F)nn1Cc1ccc(C#N)cc1 [Example 341, N^4-[1-(4-cyanobenzyl)-5-methyl-3-(trifluoromethyl)-1H-pyrazol-4-yl]-7-fluoro-N^2-(3-hydroxypropyl)quinoline-2,4-dicarboxamide]
pIC50: 6.54

Cc1c(NC(=O)c2cc(C(=O)NCCN3CCOCC3)nc3cc(F)ccc23)c(C(F)(F)F)nn1Cc1ccc(C#N)cc1 [Example 342, N^4-[1-(4-cyanobenzyl)-5-methyl-3-(trifluoromethyl)-1H-pyrazol-4-yl]-7-fluoro-N^2-[2-(morpholin-4-yl)ethyl]quinoline-2,4-dicarboxamide]
pIC50: 6.47

Cc1cc2c(C(=O)Nc3c(C(F)(F)F)nn(Cc4ccc(C#N)cc4)c3C)cc(C(N)=O)nc2cc1F [Example 343, N^4-[1-(4-cyanobenzyl)-5-methyl-3-(trifluoromethyl)-1H-pyrazol-4-yl]-7-fluoro-6-methylquinoline-2,4-dicarboxamide]
pIC50: 9.15

COCCNc1ccc2nc(C(N)=O)cc(C(=O)Nc3c(C(F)(F)F)nn(Cc4ccc(C#N)cc4)c3C)c2c1 [Example 344, N^4-[1-(4-cyanobenzyl)-5-methyl-3-(trifluoromethyl)-1H-pyrazol-4-yl]-6-[(2-methoxyethyl)amino]quinoline-2,4-dicarboxamide]
pIC50: 8.24

Cc1c(NC(=O)c2cc(C(N)=O)nc3ccc(N4CCCCC4)cc23)c(C(F)(F)F)nn1Cc1ccc(C#N)cc1 [Example 345, N^4-[1-(4-cyanobenzyl)-5-methyl-3-(trifluoromethyl)-1H-pyrazol-4-yl]-6-(piperidin-1-yl)quinoline-2,4-dicarboxamide]
pIC50: 8.14

— patent US20170037028A1 (BAYER PHARMA AKTIENGESELLSCHAFT, priority 2013, published 2017)
